Article PMC5378280 (Cancer Science, 2017)

Legend:
Japanese RRMM patients = details: carfilzomib monotherapy; cited from earlier work
[1] = Pharmacokinetics of carfilzomib in plasma; type: in vivo, human; details: compared with carfilzomib monotherapy study

Effect of lenalidomide and dexamethasone on carfilzomib pharmacokinetics [1]: did not appear to be affected
Compound: CC(C)C[C@H](NC(=O)[C@H](CCc1ccccc1)NC(=O)CN1CCOCC1)C(=O)N[C@@H](Cc1ccccc1)C(=O)N[C@@H](CC(C)C)C(=O)[C@@]1(C)CO1 [carfilzomib]
ORR (Japanese RRMM patients): 22.5%
